From US4604239A, “Antibiotics” (Eli Lilly and Company, priority 1985, dated 1986)
Read-outs that look alike come from different tables or passages of the source.

Columns and labels:
[1] = tested on: Streptococcus sp. (Group D); experiment: agar-dilution MIC; assay type: cell-based; details: Table 17
Excerpt: (§1) The agar-dilution procedure described by the International Collaborative study (ICS) group was used to determine the minimum inhibitory concentrations (MIC's).

[2] = tested on: Staphylococcus epidermidis; experiment: agar-dilution MIC; assay type: cell-based; details: Staphylococcus epidermidis EPI1; Table 17
Excerpt: as §1

Streptococcus pneumoniae = experiment: agar-dilution MIC; assay type: cell-based; details: Streptococcus pneumoniae Park I; Table 17
Excerpt: as §1

Bacteroides fragilis = experiment: agar-dilution MIC; assay type: cell-based
Excerpt: as §1

Streptococcus pyogenes = experiment: agar-dilution MIC; assay type: cell-based; details: Streptococcus pyogenes C203; Table 17
Excerpt: as §1

Fusobacterium symbiosum = experiment: agar-dilution MIC; assay type: cell-based; details: Fusobacterium symbiosum 1470; Table 14
[3] = tested on: Bacteroides melaninogenicus; experiment: agar-dilution MIC; assay type: cell-based; details: Bacteroides melaninogenicus 2736; Table 14
Bacteroides vulgatis [4] = experiment: agar-dilution MIC; assay type: cell-based; details: Bacteroides vulgatis 1211; Table 14
[5] = tested on: Peptococcus asaccharolyticus; experiment: agar-dilution MIC; assay type: cell-based
Experimental: (§2) The MIC values were determined by the agar-dilution method, and are recorded in Table 15, which follows.

Peptococcus magnus = experiment: agar-dilution MIC; assay type: cell-based; details: Table 15
Experimental: as §2

Peptococcus constellatus = experiment: agar-dilution MIC; assay type: cell-based; details: Pc. constellatus 1468; Table 15
Experimental: as §2

Peptococcus prevoti [6] = experiment: agar-dilution MIC; assay type: cell-based; details: Table 15
Experimental: as §2

Staphylococcus aureus = experiment: agar-dilution MIC; assay type: cell-based; details: in µg/mL
Bacteroides vulgatis [7] = experiment: agar-dilution MIC; assay type: cell-based; details: B. vulgatis 1563; 24-hour; Table 12
Excerpt: (§3) The A41030 antibiotics, factors A, B, and C, are active against a genus of anaerobic bacteria identified as Bacteroides sp., the 24-hour MIC values being determined by the agar-dilution method, and are set forth in Table 12, which follows.

Bacteroides corrodens = experiment: agar-dilution MIC; assay type: cell-based; details: B. corrodens 1874; 24-hour; Table 12
Excerpt: as §3

S. pyogenes = experiment: experimental bacterial infection in mice; assay type: in vivo; details: against S. pyogenes in mice; oral
Clostridium difficile = assay type: cell-based
[8] = tested on: Peptostreptococcus anaerobius; experiment: agar-dilution MIC; assay type: cell-based
Propionibacterium acnes = experiment: agar-dilution MIC; assay type: cell-based
Excerpt: Antibiotic A41030 factors A, B and C have also been tested and found to be active against a genus of anaerobic bacteria identified as Propionibacterium acnes.

Clostridium perfringens = assay type: cell-based; details: Clostridium perfringens 81; Table 14
Peptococcus prevoti [9] = experiment: agar-dilution MIC; assay type: cell-based
Clostridium septicum = experiment: agar-dilution MIC; assay type: cell-based; details: Clostridium septicum 1128; Table 14

A41030 factor C
MIC ([1]; Streptococcus sp. Group D 9960): 4 µg/mL
MIC ([1]; Streptococcus sp. Group D X66): 2 µg/mL
MIC [2]: 0.5 µg/mL
MIC (Streptococcus pneumoniae): 1 µg/mL
MIC (Bacteroides fragilis; B. fragilis 2, 24-hour, Table 12): 32 µg/mL
MIC (Bacteroides fragilis; B. fragilis 9, 24-hour, Table 12): 32 µg/mL
MIC (Bacteroides fragilis; B. fragilis 103, 24-hour, Table 12): 32 µg/mL
MIC (Bacteroides fragilis; B. fragilis 104, 24-hour, Table 12): 32 µg/mL
MIC (Bacteroides fragilis; B. fragilis 106, 24-hour, Table 12): 32 µg/mL
MIC (Bacteroides fragilis; B. fragilis 107, 24-hour, Table 12): 32 µg/mL
MIC (Bacteroides fragilis; B. fragilis 108, 24-hour, Table 12): 64 µg/mL
MIC (Bacteroides fragilis; B. fragilis 110, 24-hour, Table 12): 64 µg/mL
MIC (Bacteroides fragilis; B. fragilis 111, 24-hour, Table 12): 32 µg/mL
MIC (Bacteroides fragilis; B. fragilis 112, 24-hour, Table 12): 32 µg/mL
MIC (Bacteroides fragilis; B. fragilis 113, 24-hour, Table 12): 32 µg/mL
MIC (Bacteroides fragilis; B. fragilis 1451, 24-hour, Table 12): 64 µg/mL
MIC (Bacteroides fragilis; B. fragilis 1470, 24-hour, Table 12): 64 µg/mL
MIC (Bacteroides fragilis; B. fragilis 1877, 24-hour, Table 12): 32 µg/mL
MIC (Bacteroides fragilis; B. fragilis 9032, 24-hour, Table 12): 32 µg/mL
MIC (Bacteroides fragilis; Bacteroides fragilis 1877, Table 14): 16 µg/mL
MIC (Bacteroides fragilis; Bacteroides fragilis 1936B, Table 14): 32 µg/mL
MIC (Streptococcus pyogenes): 1 µg/mL
MIC (Fusobacterium symbiosum): 1.0 µg/mL
MIC [3]: 4 µg/mL
MIC (Bacteroides vulgatis [4]): 32 µg/mL
MIC ([5]; Pc. asaccharolyticus 1344, Table 15): 1.0 µg/mL
MIC ([5]; Peptococcus asaccharolyticus 1302, Table 14): ≤ 0.25 µg/mL
MIC (Peptococcus magnus; Pc. magnus 1401): 0.25 µg/mL
MIC (Peptococcus magnus; Pc. magnus 1421): 0.25 µg/mL
MIC (Peptococcus magnus; Pc. magnus 1477): 0.5 µg/mL
MIC (Peptococcus constellatus): 0.5 µg/mL
MIC (Peptococcus prevoti [6]; Pc. prevoti 1293): 0.5 µg/mL
MIC (Peptococcus prevoti [6]; Pc. prevoti 1407): 1.0 µg/mL
MIC (Staphylococcus aureus): 1
MIC (Bacteroides vulgatis [7]): 32 µg/mL
MIC (Bacteroides corrodens): 32 µg/mL
in vivo oral activity (S. pyogenes): > 300 mg./kg. X 2
MIC (Clostridium difficile; Clostridium difficile 78, Table 16): 1.0 µg/mL
MIC (Clostridium difficile; Clostridium difficile 107B, Table 16): 1.0 µg/mL
MIC (Clostridium difficile; Clostridium difficile 111F, Table 16): 2 µg/mL
MIC (Clostridium difficile; Clostridium difficile 1153, Table 16): 2 µg/mL
MIC (Clostridium difficile; Clostridium difficile 2634, Table 16): 2 µg/mL
MIC (Clostridium difficile; Clostridium difficile 2994, Table 14): 16 µg/mL
MIC (Clostridium difficile; Clostridium difficile 3424-5B, Table 16): 1.0 µg/mL
MIC (Clostridium difficile; Clostridium difficile 3816, Table 16): 2 µg/mL
MIC (Clostridium difficile; Clostridium difficile 3950D, Table 16): 2 µg/mL
MIC (Clostridium difficile; Clostridium difficile 6890, Table 16): 2 µg/mL
MIC (Clostridium difficile; Clostridium difficile 8484, Table 16): 1.0 µg/mL
MIC (Clostridium difficile; Clostridium difficile A-194, Table 16): 2 µg/mL
MIC (Clostridium difficile; Clostridium difficile A-195, Table 16): 1.0 µg/mL
MIC (Clostridium difficile; Clostridium difficile A-196, Table 16): 2 µg/mL
MIC (Clostridium difficile; Clostridium difficile A-279, Table 16): 2 µg/mL
MIC (Clostridium difficile; Clostridium difficile A-280, Table 16): 1.0 µg/mL
MIC (Clostridium difficile; Clostridium difficile A-281, Table 16): 2 µg/mL
MIC (Clostridium difficile; Clostridium difficile WAL-2112, Table 16): 2 µg/mL
MIC (Clostridium difficile; Clostridium difficile WAL-3657, Table 16): 2 µg/mL
MIC (Clostridium difficile; Clostridium difficile WAL-4268, Table 16): 1.0 µg/mL
MIC ([8]; Peptostreptococcus anaerobius 1428, Table 14): ≤ 0.25 µg/mL
MIC ([8]; Ps. anaerobius 52, Table 15): 0.25 µg/mL
MIC ([8]; Ps. anaerobius 59, Table 15): 0.25 µg/mL
MIC ([8]; Ps. anaerobius 1418, Table 15): ≤ 0.03 µg/mL
MIC ([8]; Ps. anaerobius 1428, Table 15): 0.25 µg/mL
MIC ([8]; Ps. anaerobius 1451, Table 15): 0.25 µg/mL
MIC ([8]; Ps. anaerobius 1477, Table 15): 0.25 µg/mL
MIC (Propionibacterium acnes; P. acnes 104, 24-hour, Table 13): 0.25 µg/mL
MIC (Propionibacterium acnes; P. acnes 5170, 24-hour, Table 13): ≤ 0.03 µg/mL
MIC (Propionibacterium acnes; P. acnes 5176, 24-hour, Table 13): ≤ 0.03 µg/mL
MIC (Propionibacterium acnes; P. acnes 5187, 24-hour, Table 13): 0.06 µg/mL
MIC (Propionibacterium acnes; P. acnes 5197, 24-hour, Table 13): ≤ 0.03 µg/mL
MIC (Propionibacterium acnes; P. acnes 5227, 24-hour, Table 13): 0.06 µg/mL
MIC (Propionibacterium acnes; P. acnes 5228, 24-hour, Table 13): 1.0 µg/mL
MIC (Propionibacterium acnes; P. acnes 5229, 24-hour, Table 13): 0.5 µg/mL
MIC (Propionibacterium acnes; P. acnes 5246, 24-hour, Table 13): 0.06 µg/mL
MIC (Propionibacterium acnes; P. acnes 5292, 24-hour, Table 13): 0.06 µg/mL
MIC (Propionibacterium acnes; Propionibacterium acnes 79, Table 14): ≤ 0.25 µg/mL
MIC (Clostridium perfringens): 1.0 µg/mL
MIC (Peptococcus prevoti [9]; Pc. prevoti 1281, Table 15): 1.0 µg/mL
MIC (Peptococcus prevoti [9]; Peptococcus prevoti 1281, Table 14): ≤ 0.25 µg/mL
MIC (Clostridium septicum): 8 µg/mL
